# Laboratory results published in patent publication US11814367B2, “Inhibitors of glycogen synthase 1 (GYS1) and methods of use thereof” (Maze Therapeutics, Inc., priority 2021, dated 2023).
# Columns and labels:
# [1] = biological target: hGYS1 enzyme (recombinant hGYS1/GN1 protein) (Homo sapiens (Human), UniProt P13807); assay: GYS1 coupled enzyme assay (PK/LDH); assay type: biochemical; conditions: hGYS1/GN1 50 nM, UDP-Glucose 0.8 mM, G6P 1 mM; geometric mean of at least 2 runs
# [2] = tested on: hGYS1 enzyme / glycogen synthesis in HeLa cells; assay: GYS1 cell based assay (glycogen synthesis, Glucose-glo); design: species or system human; conditions: Homo sapiens, HeLa, 24 h, 24 h incubation, 20 mM glucose, geometric mean of at least 2 runs
# How it was run: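 HeLa cells starved 24 h in medium containing only 1× Glutamax were plated onto compound in medium with 20 mM glucose (1% DMSO final) for 24 h, 37 °C, 5% CO2. Acid lysates were Tris-quenched, glucoamylase-digested (pH 5.3, 1 h, 37 °C) and read by Glucose-glo luminescence. IC50 came from Hill fits, as geometric mean of ≥2 runs.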
# [3] = biological target: hGYS2 enzyme (recombinant hGYS2/GN1 protein) (Homo sapiens (Human), UniProt P54840); assay: GYS2 coupled enzyme assay (PK/LDH); assay type: biochemical; conditions: geometric mean of at least 2 assay runs on separate days, read-out: Avg_IC50
# Chain of hGYS2 enzyme (recombinant hGYS2/GN1 protein) (P54840 whole entry): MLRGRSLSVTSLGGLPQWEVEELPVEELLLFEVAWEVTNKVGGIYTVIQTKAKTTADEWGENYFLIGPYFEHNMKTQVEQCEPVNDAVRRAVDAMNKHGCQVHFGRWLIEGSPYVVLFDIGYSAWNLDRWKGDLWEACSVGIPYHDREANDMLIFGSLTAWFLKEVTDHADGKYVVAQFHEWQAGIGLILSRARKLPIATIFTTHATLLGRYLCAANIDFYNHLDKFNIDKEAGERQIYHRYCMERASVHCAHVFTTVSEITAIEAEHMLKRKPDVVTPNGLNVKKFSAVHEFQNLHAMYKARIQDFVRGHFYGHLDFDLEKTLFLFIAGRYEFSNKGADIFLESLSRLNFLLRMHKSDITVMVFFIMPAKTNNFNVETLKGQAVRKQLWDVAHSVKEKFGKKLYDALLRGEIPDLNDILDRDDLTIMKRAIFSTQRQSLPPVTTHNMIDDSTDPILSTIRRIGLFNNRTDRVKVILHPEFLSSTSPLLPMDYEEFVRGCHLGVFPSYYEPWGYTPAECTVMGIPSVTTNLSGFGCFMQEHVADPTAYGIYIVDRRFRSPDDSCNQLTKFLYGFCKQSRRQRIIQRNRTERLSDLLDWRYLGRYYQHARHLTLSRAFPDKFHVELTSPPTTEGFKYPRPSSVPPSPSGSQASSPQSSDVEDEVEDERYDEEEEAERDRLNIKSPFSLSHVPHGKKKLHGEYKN
# Chain of hGYS2 enzyme (recombinant hGYS2/GN1 protein) (P46976 whole entry partner): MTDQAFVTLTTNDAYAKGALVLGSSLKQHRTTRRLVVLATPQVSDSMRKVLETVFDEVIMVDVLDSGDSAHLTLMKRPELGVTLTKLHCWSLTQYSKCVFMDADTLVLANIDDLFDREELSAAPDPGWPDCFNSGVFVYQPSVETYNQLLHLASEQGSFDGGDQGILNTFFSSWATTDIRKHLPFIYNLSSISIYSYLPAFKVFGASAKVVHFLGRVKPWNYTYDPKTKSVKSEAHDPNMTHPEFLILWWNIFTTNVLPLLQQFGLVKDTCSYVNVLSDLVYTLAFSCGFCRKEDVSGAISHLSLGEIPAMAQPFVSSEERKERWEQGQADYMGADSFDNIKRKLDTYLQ
# How it was run: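 hGYS2/GN1 200 nM; UDP-Glc 2 mM; glycogen 0.2%; G6P 2 mM; PEP 2 mM, NADH 0.6 mM, PK/LDH 20 U/mL. 50 mM Tris pH 7.5, MgCl2, KCl, BSA, TCEP, 2.5% DMSO. Kinetic A340, 10 min. IC50 = geomean of ≥2 runs.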
# Chain of hGYS1 enzyme (recombinant hGYS1/GN1 protein) (P13807 whole entry): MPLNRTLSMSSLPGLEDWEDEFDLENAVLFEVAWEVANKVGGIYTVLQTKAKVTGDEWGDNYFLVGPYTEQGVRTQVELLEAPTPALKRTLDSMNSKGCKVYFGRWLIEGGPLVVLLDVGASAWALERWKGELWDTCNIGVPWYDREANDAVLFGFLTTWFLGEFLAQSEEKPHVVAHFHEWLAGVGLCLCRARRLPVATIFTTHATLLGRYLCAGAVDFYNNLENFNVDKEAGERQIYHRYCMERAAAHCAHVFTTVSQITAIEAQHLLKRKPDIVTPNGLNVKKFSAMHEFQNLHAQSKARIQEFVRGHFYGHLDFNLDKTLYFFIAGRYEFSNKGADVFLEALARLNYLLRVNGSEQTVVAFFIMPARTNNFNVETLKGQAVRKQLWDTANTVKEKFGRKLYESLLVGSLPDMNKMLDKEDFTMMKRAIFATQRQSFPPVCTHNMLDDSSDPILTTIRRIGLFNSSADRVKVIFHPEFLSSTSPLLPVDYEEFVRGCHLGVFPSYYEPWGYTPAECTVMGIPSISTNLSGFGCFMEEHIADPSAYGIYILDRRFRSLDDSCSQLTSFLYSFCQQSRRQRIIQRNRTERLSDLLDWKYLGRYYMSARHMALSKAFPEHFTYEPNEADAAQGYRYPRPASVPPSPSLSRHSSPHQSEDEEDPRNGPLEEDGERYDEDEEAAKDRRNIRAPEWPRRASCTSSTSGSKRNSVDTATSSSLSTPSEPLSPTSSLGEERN
# Chain of hGYS1 enzyme (recombinant hGYS1/GN1 protein) (P46976 whole entry partner): as the sequence (P46976 whole entry partner) above
SMILES,IC50 [1] [nM],IC50 [2] [nM],IC50 [3] [nM]
"CC(C)c1ccc([C@@H](NC(=O)[C@@H]2C[C@@H](F)CN2C(=O)Cc2ncco2)c2ccccc2)nc1F [Compound 407, (2S,4R)-4-fluoro-N-[(S)-[6-fluoro-5-(propan-2-yl)pyridin-2-yl](phenyl)methyl]-1-[2-(1,3-oxazol-2-yl)acetyl]pyrrolidine-2-carboxamide]",15,420,> 100000
"CC(C)c1ccc([C@@H](NC(=O)[C@@H]2C[C@@H](F)CN2C(=O)Cc2cnn[nH]2)c2ccccc2)cc1C(F)F [Compound 679, (2S,4R)-N-[(S)-[3-(difluoromethyl)-4-(propan-2-yl)phenyl](phenyl)methyl]-4-fluoro-1-[2-(1H-1,2,3-triazol-5-yl)acetyl]pyrrolidine-2-carboxamide]",577,8490,> 100000
"CCn1c(=O)ccn(CC(=O)N2C[C@H](F)C[C@H]2C(=O)N[C@@H](c2ccccc2)c2ccc(C(C)C)c(F)n2)c1=O [Compound 786, (2S,4R)-1-[2-(3-ethyl-2,4-dioxo-1,2,3,4-tetrahydropyrimidin-1-yl)acetyl]-4-fluoro-N-[(S)-[6-fluoro-5-(propan-2-yl)pyridin-2-yl](phenyl)methyl] pyrrolidine-2-carboxamide]",3,50,> 100000
"CC(C)c1ccc([C@@H](NC(=O)[C@@H]2C[C@@H](F)CN2C(=O)Cc2n[nH]c(=O)[nH]2)c2ccccc2)nc1 [Compound 284, (2S,4R)-4-fluoro-1-[2-(5-oxo-4,5-dihydro-1H-1,2,4-triazol-3-yl)acetyl]-N-[(S)-phenyl[5-(propan-2-yl)pyridin-2-yl]methyl]pyrrolidine-2-carboxamide]",90,5190,> 100000
"CC(C)c1ccc([C@@H](NC(=O)[C@@H]2C[C@@H](F)CN2C(=O)Cc2nncn2C)c2ccccc2)cc1 (stereo in doubt) [Compound 227, (2RS,4R)-4-fluoro-1-[2-(4-methyl-4H-1,2,4-triazol-3-yl)acetyl]-N-[(S)-phenyl[4-(propan-2-yl)phenyl]methyl]pyrrolidine-2-carboxamide]",76,1310,> 100000
"CC(C)c1ccc([C@@H](NC(=O)[C@@H]2C[C@@H](F)CN2C(=O)Cn2ncc(N(C)C)n2)c2ccccc2)nc1F [Compound 392, (2S,4R)-1-{2-[4-(dimethylamino)-2H-1,2,3-triazol-2-yl]acetyl}-4-fluoro-N-[(S)-[6-fluoro-5-(propan-2-yl)pyridin-2-yl](phenyl)methyl] pyrrolidine-2-carboxamide]",5,100,> 100000
"Cc1cc([C@@H](NC(=O)[C@@H]2C[C@@H](F)CN2C(=O)Cc2cnn[nH]2)c2ccccc2)ccc1C(C)C [Compound 670, (2S,4R)-4-fluoro-N-[(S)-[3-methyl-4-(propan-2-yl)phenyl](phenyl)methyl]-1-[2-(1H-1,2,3-triazol-5-yl)acetyl]pyrrolidine-2-carboxamide]",71,660,> 100000
"CCn1c(=O)ccn(CC(=O)N2C[C@H](F)C[C@H]2C(=O)N[C@@H](c2ccccc2)c2ccc(C3CC(F)(F)C3)c(F)n2)c1=O [Compound 515, (2S,4R)-N-[(S)-[5-(3,3-difluorocyclobutyl)-6-fluoropyridin-2-yl](phenyl)methyl]-1-[2-(3-ethyl-2,4-dioxo-l,2,3,4-tetrahydropyrimidin-1-yl)acetyl]-4-fluoropyrrolidine-2-carboxamide]",4,100,> 100000
"Cc1coc(CC(=O)N2C[C@H](F)C[C@H]2C(=O)N[C@@H](c2ccccc2)c2ccc(C3CC(F)(F)C3)c(F)n2)n1 [Compound 511, (2S,4R)-N-[(S)-[5-(3,3-difluorocyclobutyl)-6-fluoropyridin-2-yl](phenyl)methyl]-4-fluoro-1-[2-(4-methyl-1,3-oxazol-2-yl)acetyl]pyrrolidine-2-carboxamide]",12,260,> 100000
"Cc1cn(CC(=O)N2C[C@H](F)C[C@H]2C(=O)N[C@@H](c2ccccc2)c2ccc(C(C)C)cn2)c(=O)[nH]c1=O [Compound 249, (2S,4R)-4-fluoro-1-[2-(5-methyl-2,4-dioxo-1,2,3,4-tetrahydropyrimidin-1-yl)acetyl]-N-[(S)-phenyl[5-(propan-2-yl)pyridin-2-yl]methyl]pyrrolidine-2-carboxamide]",21,1150,> 100000

# More lines, now with the values ahead:
IC50 [1] [nM],IC50 [2] [nM],IC50 [3] [nM],SMILES
63,780,> 100000,"Cn1cc(CC(=O)N2C[C@H](F)C[C@H]2C(=O)N[C@@H](c2ccccc2)c2ccc(C3(C)CC3)c(F)c2)c2ccccc21 [Compound 563, (2S,4R)-4-fluoro-N-[(S)-[3-fluoro-4-(1-methylcyclopropyl)phenyl](phenyl)methyl]-1-[2-(1-methyl-1H-indol-3-yl)acetyl]pyrrolidine-2-carboxamide]"
31,880,> 100000,"COCCN1CCN(C(=O)NCC(=O)N2C[C@H](F)C[C@H]2C(=O)N[C@@H](c2ccccc2)c2ccc(C3CC3)c(F)c2)CC1 [Compound 488, N-{2-[(2S,4R)-2-{[(S)-(4-cyclopropyl-3-fluorophenyl)(phenyl)methyl]carbamoyl}-4-fluoropyrrolidin-1-yl]-2-oxoethyl}-4-(2-methoxyethyl) piperazine-1-carboxamide]"
71,1350,> 100000,"COCCN1CCN(C(=O)OCC(=O)N2C[C@H](F)C[C@H]2C(=O)N[C@@H](c2ccccc2)c2ccc(C3CC3)c(F)c2)CC1 [Compound 448, 2-[(2S,4R)-2-{[(S)-(4-cyclopropyl-3-fluorophenyl)(phenyl)methyl]carbamoyl}-4-fluoropyrrolidin-1-yl]-2-oxoethyl 4-(2-methoxyethyl)piperazine-1-carboxylate]"
116,2090,> 100000,"Cc1nnn(CC(=O)N2C[C@H](F)C[C@H]2C(=O)NC(c2ccccc2)c2cc(C)c(C3CC3)c(F)c2)n1 (single isomer, unassigned) [Compound 682, (2S,4R)-N-[(S) or (R)-(4-cyclopropyl-3-fluoro-5-methylphenyl) (phenyl)methyl]-4-fluoro-1-[2-(5-methyl-2H-1,2,3,4-tetrazol-2-yl)acetyl]pyrrolidine-2-carboxamide]"
15,290,> 100000,"O=C(N[C@@H](c1ccccc1)c1ccc(C2CC(F)(F)C2)c(F)n1)[C@@H]1C[C@@H](F)CN1C(=O)CNC(=O)N1CC(F)(F)C1 [Compound 512, (2S,4R)-1-{2-[(3,3-difluoroazetidine-1-carbonyl)amino]acetyl}-N-[(S)-[5-(3,3-difluorocyclobutyl)-6-fluoropyridin-2-yl](phenyl)methyl]-4-fluoropyrrolidine-2-carboxamide]"
72,1600,> 100000,"O=C(N[C@@H](c1ccccc1)c1ccc(C2CC2)c(F)c1)[C@@H]1C[C@@H](F)CN1C(=O)CN1C(=O)Cc2ccccc21 [Compound 454, (2S,4R)-N-[(S)-(4-cyclopropyl-3-fluorophenyl)(phenyl)methyl]-4-fluoro-1-[2-(2-oxo-2,3-dihydro-1H-indol-1-yl)acetyl]pyrrolidine-2-carboxamide]"
25,400,> 100000,"CC(C)c1ccc([C@@H](NC(=O)[C@@H]2C[C@@H](F)CN2C(=O)Cc2ccccn2)c2ccccc2)cc1F [Compound 349, (2S,4R)-4-fluoro-N-[(S)-[3-fluoro-4-(propan-2-yl)phenyl](phenyl)methyl]-1-[2-(pyridin-2-yl)acetyl]pyrrolidine-2-carboxamide]"
20,630,> 100000,"Cc1ccc2c(CC(=O)N3C[C@H](F)C[C@H]3C(=O)N[C@@H](c3ccccc3)c3ccc(C4CC4)c(F)c3)cccc2n1 [Compound 477, (2S,4R)-N-[(S)-(4-cyclopropyl-3-fluorophenyl)(phenyl)methyl]-4-fluoro-1-[2-(2-methylquinolin-5-yl)acetyl]pyrrolidine-2-carboxamide]"
34,390,> 100000,"CC(C)c1ccc([C@@H](NC(=O)[C@@H]2C[C@@H](F)CN2C(=O)Cc2ccno2)c2ccccc2)cc1F [Compound 338, (2S,4R)-4-fluoro-N-[(S)-[3-fluoro-4-(propan-2-yl)phenyl](phenyl)methyl]-1-[2-(1,2-oxazol-5-yl)acetyl]pyrrolidine-2-carboxamide]"
13,330,> 100000,"CC(C)c1ccc([C@@H](NC(=O)[C@@H]2C[C@@H](F)CN2C(=O)CNC(N)=O)c2ccccc2)nc1F [Compound 396, (2S,4R)-1-[2-(carbamoylamino)acetyl]-4-fluoro-N-[(S)-[6-fluoro-5-(propan-2-yl)pyridin-2-yl](phenyl)methyl] pyrrolidine-2-carboxamide]"
95,1570,> 100000,"O=C(N[C@@H](c1ccccc1)c1ccc(C2CC2)c(F)c1)[C@@H]1C[C@@H](F)CN1C(=O)COC(=O)N1CCC1 [Compound 451, 2-[(2S,4R)-2-{[(S)-(4-cyclopropyl-3-fluorophenyl)(phenyl)methyl]carbamoyl}-4-fluoropyrrolidin-1-yl]-2-oxoethyl azetidine-1-carboxylate]"
